Results on five compounds are retold here after patent US6034246A, “2-arylbenzazole compounds” (Cancer Research Campaign Technology Limited, priority 1995, dated 2000).

Structures are written as SMILES. pIC50: −log10 of the molar value.

Assay [1] has as its system L23/P. Nature of the assay: in vitro inhibition of growth of human lung cancer cell line L23/P (Table 1). It counts as cell-based. An excerpt:
(§1) Tables 1 to 4 at the end of the present description show in vitro test results obtained in various sets of experiments for the cytotoxic activity of several of the benzazole compounds concerned, including also for reference results for the compound CJM 126 and comparative results for compound DF129, when tested against a range of tumor cell lines which includes ovarian, lung and certain colon and renal cancer cells from the National Cancer Institute (USA) collection. As usual the results are expressed in terms of IS50 values (concentration or dosage required to reduce cell growth or proliferation by 50%) calculated from dose-effect curves plotted for cultures of the cells in question.
(§2) In carrying out the in vitro studies, the cytotoxicity assays may be carried out by a method corresponding substantially to the following example:
(§3) Cells were maintained in a continuous logarithmic culture in Dublecco's medium supplemented with 10% fetal calf serum and penicillin (100 IU/ml) and streptomycin ([…]). The cells were mildly trypsinized for passage and for use in assays. On day zero, 100 μl of trypsinized tumor cells (1×10^4 /ml) were plated in the wells of 96-well flat-bottom microtiter plates. The plates were incubated for 2 days at 37° C. and 5% CO2 in air to allow the cells to adhere and resume exponential growth prior to the addition of drugs.
(§4) On day two 50 μl of the highest drug concentration was added to the wells of column 12 and from there serially diluted 3-fold to column 1 by serial transfer of 50 μl using an 8-channel micropipette. The final volume of column 1 was adjusted to 100 μl. No additions were made to the wells of rows A and B, which served as controls. The plates were further incubated for 5 days at 37° C. and 5% CO2 in air. Each compound was tested in duplicate.
(§5) On day 7 the test was terminated by the addition of 100 μl saline containing 0.002% w/v propidium iodide (Sigma), 0.3% drawing ink (Staedtler "Marsmatic 745"--Trade Mark) and 0.5% Triton X-100. The plates were kept at 4° C. overnight before reading on an inverted microscope equipped with an automated scanning stage. Fluorescence intensity was measured in arbitrary units by a photomultiplier. An HP-87 computer controlled the movement of the stage and also collected and processed the data from the multiplier.
(§6) For each compound tested a dose-response curve was obtained and the IC50 value (the drug concentration at 50% inhibition of cell growth) was calculated.

Assay [2] deals with A2780. Nature of the assay: in vitro activity against human ovarian cell line A2780 (Table 2). The conditions noted are these: Homo sapiens; A2780 (parental line). It counts as cell-based.
Excerpt: (§7) As usual the results are expressed in terms of IS50 values (concentration or dosage required to reduce cell growth or proliferation by 50%) calculated from dose-effect curves plotted for cultures of the cells in question.
as §2, §3, §4
(§8) The plates were kept at 4° C. overnight before reading on an inverted microscope equipped with an automated scanning stage. Fluorescence intensity was measured in arbitrary units by a photomultiplier. An HP-87 computer controlled the movement of the stage and also collected and processed the data from the multiplier.

In assay [3] the test system is L88. Nature of the assay: in vitro inhibition of growth of human lung cancer cell line L88 (Table 1). It counts as cell-based.
Excerpt: as §1, §2, §3
(§9) On day two 50 μl of the highest drug concentration was added to the wells of column 12 and from there serially diluted 3-fold to column 1 by serial transfer of 50 μl using an 8-channel micropipette. The final volume of column 1 was adjusted to 100 μl. No additions were made to the wells of rows A and B, which served as controls. […]
(§10) On day 7 the test was terminated by the addition of 100 μl saline containing 0.002% w/v propidium iodide (Sigma), 0.3% drawing ink (Staedtler "Marsmatic 745"--Trade Mark) and 0.5% Triton X-100. The plates were kept at 4° C. overnight before reading on an inverted microscope equipped with an automated scanning stage. Fluorescence intensity was measured in arbitrary units by a photomultiplier. […]

The subject of assay [4] is H69/P. Nature of the assay: in vitro inhibition of growth of human lung cancer cell line H69/P (Table 1). It counts as cell-based.
Excerpt: as §1, §2, §3, §4, §5, §6

In assay [5] the test system is MDA 468. As to the kind of experiment: in vitro inhibitory activity against human breast tumour cell line MDA 468 (Table 4). It counts as cell-based. The conditions noted are these: initial seeding density 2.5 × 10^2 cells/well.
Excerpt: as §1, §2, §3, §4, §5, §6
(§11) *Initial seeding density 2.5 × 10^2 cells/well

The subject of assay [6] is MOR/P. Nature of the assay: in vitro inhibition of growth of human lung cancer cell line MOR/P (Table 1). Type of assay: cell-based. The conditions noted are these: MOR/P (parental line).
Excerpt: as §1, §2, §3, §4, §5, §6

The subject of assay [7] is A2780-cisR. Nature of the assay: in vitro activity against human ovarian cell line A2780-cisR (Table 2). The conditions noted are these: Homo sapiens, A2780cisR; A2780-cisR (platinum-resistant). It counts as cell-based.
Excerpt: as §7, §2, §3, §4, §8

For assay [8], the system named is MOR/CPR. Nature of the assay: in vitro inhibition of growth of human lung cancer cell line MOR/CPR (Table 1). The conditions noted are these: Homo sapiens; MOR/CPR (cisplatin resistant line). It counts as cell-based.
Excerpt: as §1, §2, §3, §4, §5, §6

For assay [9], the system named is CH1-cisR. Nature of the assay: in vitro activity against human ovarian cell line CH1-cisR (Table 2). Type of assay: cell-based. The conditions noted are these: Homo sapiens, CH1cisR.
Excerpt: as §7, §2, §3, §4, §8

Assay [10] deals with human breast cancer cell lines. As to the kind of experiment: in vitro inhibition of human breast cancer cell lines. Type of assay: cell-based. The conditions noted are these: words, Table 4.
Excerpt: as §1, §2, §3, §4, §5, §6

Assay [11] has as its system MCF-7wt. Nature of the assay: in vitro inhibitory activity against human breast tumour cell line MCF-7wt (Table 4). The conditions noted are these: initial seeding density 2.5 × 10^2 cells/well. It counts as cell-based.
Excerpt: as §1, §2, §3, §4, §5, §6, §11

Assay [12] relates to CH1. As to the kind of experiment: in vitro activity against human ovarian cell line CH1 (Table 2). Type of assay: cell-based. The conditions noted are these: Homo sapiens.
Excerpt: as §7, §2, §3, §4, §8

In assay [13] the test system is MOR/R. As to the kind of experiment: in vitro inhibition of growth of human lung cancer cell line MOR/R (Table 1). The conditions noted are these: MOR/R (multidrug resistant line). Type of assay: cell-based.
Excerpt: as §1, §2, §3, §4, §5, §6

The subject of assay [14] is MCF-7B. As to the kind of experiment: in vitro inhibitory activity against human breast tumour cell line MCF-7B (Table 4). Type of assay: cell-based. The conditions noted are these: initial seeding density 2.5 × 10^2 cells/well.
Excerpt: as §1, §2, §3, §9, §10

Assay [15] concerns L23/R. Nature of the assay: in vitro inhibition of growth of human lung cancer cell line L23/R (Table 1). It counts as cell-based.
Excerpt: as §1, §2, §3, §4, §5, §6

The test system of assay [16] is LX4. As to the kind of experiment: in vitro inhibition of growth of human lung cancer cell line LX4 (Table 1). Type of assay: cell-based.
Excerpt: as §1, §2, §3, §4, §5, §6

Assay [17] relates to ovarian cancer cell lines. Nature of the assay: in vitro inhibition of ovarian cancer cell lines. It counts as cell-based, human. The conditions noted are these: words, Table 2.
Excerpt: as §1
In carrying out the in vitro studies, the cytotoxicity assays may be carried out by a method corresponding substantially to the following example: […]
as §10

The subject of assay [18] is ER-tumors MT-1 and MT-3. The conditions noted are these: words, background statement; cited from earlier work.

In general, pIC50 refers to the negative decadic logarithm of the IC50, by convention in mol/L. Turning to `O=C(CCl)Nc1ccc(-c2nc3ccccc3s2)cc1` [DF180, 2-(4'-Chloroacetamidophenyl)benzothiazole], the pIC50 was 5.82 in assay [1]; 5.90 in [2]; 5.22 in assay [3]; 5.52 in [4]; 7.40 in assay [5]; 5.22 in [6]. The pIC50 in assay [7] is 5.80; in assay [8], 5.00; in assay [9], 5.59; in assay [11], 8.40; in assay [12], 5.80; in assay [13], 5.22. Also, the results for the pIC50 in assay [14], in assay [15] and in assay [16] were 6.30, 5.82 and 5.52, respectively. In addition, in assay [10], the “inhibitory activity in respect of breast cancer cell lines” value is on record as “useful degree of inhibitory activity”. Further, the “activity against two cisplatin resistant cell lines compared with the parental line” value in assay [17] is reported as “substantially equiactive”. For the same compound, the “activity in respect of the ovarian cancer cell lines” value in assay [17] is on record as “most active by far”.
With `Nc1ccc(-c2nc3ccccc3s2)cc1Br` [DF209, 2-(4'-amino-3'-bromophenyl)benzothiazole], the pIC50 is more than 9.00 in assay [5], more than 9.00 in [11] and 9.00 in assay [14]. Further, in [10], the “potency against breast cancer cells relative to CJM 126” value is listed as “more potent than even the compound CJM 126”.
As for `CCCCCCCCCCCCCCCCOP(=O)([O-])OCC[N+](C)(C)C` [hexadecylphosphocoline], the “responsiveness of MT-1 and MT-3 tumors to drug” value (from here on “responsiveness”) in [18] is recorded as “exquisitively sensitive”.
Turning to `CN(Cc1cnc2nc(N)nc(N)c2n1)c1ccc(C(=O)N[C@@H](CCC(=O)O)C(=O)O)cc1` [methotrexate], in assay [18], the “responsiveness” value is on record as “completely unresponsive”.
Take `CC[C@]1(O)C[C@H]2CN(CCc3c([nH]c4ccccc34)[C@@](C(=O)OC)(c3cc4c(cc3OC)N(C=O)[C@H]3[C@@](O)(C(=O)OC)[C@H](OC(C)=O)[C@]5(CC)C=CCN6CC[C@]43[C@@H]65)C2)C1` [vincristine]: the “responsiveness” value in assay [18] is “completely unresponsive”.
